Data on 9 compounds can be found in PubChem BioAssay (NCI).

“And” between values parts separate entries of the source, which are not always exact repeats. Equal values may be shown once.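 Five compound concentrations were applied to cells in 96-well plates for 48 hours; endpoints were derived by simple linear interpolation of the resulting dose-response curve. GI50 = concentration required for 50% inhibition of growth. TGI denotes the concentration required for complete inhibition of growth.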

Among the test systems are MALME-3M melanoma; RXF 393 renal; LOX IMVI melanoma; IGROV1 ovarian; NCI-H23 lung; UO-31 renal; SW-620 colon; MOLT-4 leukemia; RPMI-8226 leukemia; SF-268 CNS.
Holding throughout (assay): NCI anticancer screen, dose series, 48 h

For `Cc1cc(=O)[nH]c2c1C(=O)c1c(C)cc(=O)n(C)c1C2=O`, the TGI worked out at 0.00494 µM with MALME-3M melanoma; 0.281 µM in the test on RXF 393 renal; 0.26 µM with LOX IMVI melanoma; 0.437 µM in the test with IGROV1 ovarian; 0.03 µM with NCI-H23 lung; 0.318 µM in the test with UO-31 renal. Also, the TGI in the test on SW-620 colon was 0.179 µM; with MOLT-4 leukemia, over 3.56 µM; with RPMI-8226 leukemia it was over 9.41 µM; in the test on SF-268 CNS it was 0.465 µM.

Regarding `CCCC/C=C1/CCC(CN(C)C)C1=O` (stereo unspecified), the TGI in the test on MALME-3M melanoma was found to be 4.07 µM; in the test with RXF 393 renal, 3.38 µM; in the test on LOX IMVI melanoma, 2.91 µM; in the test on IGROV1 ovarian, 10.1 µM; in the test on NCI-H23 lung, 8.18 µM; in the test on UO-31 renal, 5.97 µM. In addition, the TGI came to 2.88 µM in the test with SW-620 colon, 4.15 µM in the test with MOLT-4 leukemia, 0.897 µM with RPMI-8226 leukemia and 5.91 µM in the test with SF-268 CNS. Besides, in the test on MOLT-4 leukemia, the GI50 was 1.21 µM.

As for `Cn1cc(C2=C(c3cccc([N+](=O)[O-])c3)C(=O)NC2=O)c2ccccc21`, the GI50 in the test with MALME-3M melanoma was 13.6 µM; in the test on RXF 393 renal, 2.12 µM; in the test with LOX IMVI melanoma, 3.94 µM; in the test on IGROV1 ovarian, 9.98 µM; in the test with NCI-H23 lung it was 6.66 µM; with UO-31 renal, 6.46 µM. The GI50 was 11.4 µM in the test on SW-620 colon, 7.18 µM in the test on MOLT-4 leukemia, 7.47 µM with RPMI-8226 leukemia and 11.8 µM in the test with SF-268 CNS. The TGI was over 25 µM with MALME-3M melanoma; 9.4 µM in the test with RXF 393 renal; over 25 µM in the test with LOX IMVI melanoma; 24.2 µM in the test on IGROV1 ovarian; over 25 µM in the test with NCI-H23 lung; over 25 µM in the test on UO-31 renal. The TGI was over 25 µM in the test with SW-620 colon, over 22.8 µM in the test on MOLT-4 leukemia, over 23.2 µM with RPMI-8226 leukemia and over 25 µM in the test with SF-268 CNS.

For `C=C1CCC2C(C)(CO)C(O)CCC2(C)C1C/C=C1\C(=O)OCC1O` (stereo unspecified), the TGI in the test on MALME-3M melanoma is 30.2 µM; in the test with RXF 393 renal it was 33.8 µM; in the test with LOX IMVI melanoma it was 30.4 µM; in the test on IGROV1 ovarian it was 57.4 µM; in the test with NCI-H23 lung, 49.8 µM; in the test with UO-31 renal, over 100 µM. For the same compound, the TGI in the test on SW-620 colon is 24 µM; in the test with MOLT-4 leukemia it was over 100 µM; in the test on RPMI-8226 leukemia, 49.9 µM; with SF-268 CNS, over 100 µM.

For `COc1cc(-c2ccc[nH]2)[nH]c1/C=C1\N=C(C)C(C(=O)NC(C)C)=C1C`, the GI50 is 4.6 µM in the test with MALME-3M melanoma; 2.28 µM in the test with RXF 393 renal; 0.74 µM in the test on LOX IMVI melanoma; 4.81 µM in the test on IGROV1 ovarian; 3.63 µM in the test on NCI-H23 lung; 2.72 µM in the test on UO-31 renal. Moreover, the GI50 was 3.08 µM with SW-620 colon, 2.47 µM with MOLT-4 leukemia, 2.23 µM in the test with RPMI-8226 leukemia and 4.78 µM in the test on SF-268 CNS. Moreover, the TGI with MALME-3M melanoma turned out to be 16.9 µM; in the test with RXF 393 renal it was 9.66 µM; with LOX IMVI melanoma, 2.52 µM; in the test with IGROV1 ovarian, 25.4 µM; with NCI-H23 lung, 16 µM; with UO-31 renal, 11 µM. Further, the TGI came out at 14.7 µM in the test on SW-620 colon, 24 µM in the test with MOLT-4 leukemia, 5.97 µM in the test on RPMI-8226 leukemia and 18 µM in the test with SF-268 CNS.

For `CC(C)(C)c1cnc(CSc2cnc(NC(=O)C3CCNCC3)s2)o1`, the GI50 with MALME-3M melanoma is 0.229 µM and 0.286 µM; in the test with RXF 393 renal it was 0.124 µM and 0.157 µM; with LOX IMVI melanoma, 0.218 µM and 0.131 µM; in the test with IGROV1 ovarian it was 0.204 µM; in the test with NCI-H23 lung, 0.251 µM and 0.211 µM; in the test with UO-31 renal, 5.6 µM and 2.07 µM. Further, the GI50 in the test on SW-620 colon was 0.256 µM and 0.274 µM; with MOLT-4 leukemia, 0.351 µM and 0.248 µM; in the test with RPMI-8226 leukemia, 0.118 µM and 0.243 µM; in the test on SF-268 CNS, 0.185 µM and 0.281 µM. Further, the TGI in the test with MALME-3M melanoma was 0.511 µM and 0.907 µM; with RXF 393 renal it was 0.354 µM and 0.509 µM; in the test with LOX IMVI melanoma, 14.5 µM and > 10 µM; with IGROV1 ovarian it was 4.28 µM and > 10 µM; in the test with NCI-H23 lung it was 0.767 µM and > 2.56 µM; with UO-31 renal, 21.7 µM and > 8.99 µM. The TGI in the test on SW-620 colon is over 100 µM; in the test on MOLT-4 leukemia, 17.3 µM and > 2.99 µM; with RPMI-8226 leukemia, 0.45 µM and 0.768 µM; in the test on SF-268 CNS, 2.48 µM and > 3.39 µM.

As for `Nc1cccc(C(=O)/C=C/c2ccccc2O)c1`, the TGI in the test on MALME-3M melanoma, with RXF 393 renal, in the test with LOX IMVI melanoma, with IGROV1 ovarian, with NCI-H23 lung and with UO-31 renal was over 100 µM in each case. The TGI in the test on SW-620 colon is 29.6 µM; in the test on MOLT-4 leukemia, over 100 µM; with RPMI-8226 leukemia, 39.3 µM; in the test with SF-268 CNS, over 100 µM.

On to `COc1ccc(-c2nn(-c3cccc(Cl)c3)cc2-c2c(C#N)c(=O)n3[nH]c(-c4ccc(C)o4)nc3c2C#N)cc1`, for which the GI50 in the test on MALME-3M melanoma was 7.88 µM; in the test on RXF 393 renal it was 4.11 µM; in the test on LOX IMVI melanoma, 3.92 µM; in the test on IGROV1 ovarian it was 2.6 µM; with NCI-H23 lung it was 8.09 µM; with UO-31 renal, 1.8 µM. Further, the GI50 is 9.21 µM in the test with SW-620 colon, 3.23 µM with MOLT-4 leukemia, 5.68 µM in the test on RPMI-8226 leukemia and 5.23 µM in the test with SF-268 CNS. In addition, the TGI with MALME-3M melanoma was 41.1 µM; with RXF 393 renal it was over 50 µM; with LOX IMVI melanoma, 12.3 µM; in the test on IGROV1 ovarian it was 18.5 µM; with NCI-H23 lung, over 50 µM; with UO-31 renal it was 38.9 µM. Besides, the TGI with SW-620 colon is over 50 µM; in the test on MOLT-4 leukemia it was 24.3 µM; in the test on RPMI-8226 leukemia, over 50 µM; with SF-268 CNS, over 50 µM.

For `O=C1Cc2c([nH]c3ccccc23)-c2cc(Br)ccc2N1`, the TGI in the test with MALME-3M melanoma, in the test with RXF 393 renal, with LOX IMVI melanoma, in the test on IGROV1 ovarian, in the test on NCI-H23 lung and in the test on UO-31 renal was over 100 µM throughout. Besides, the TGI with SW-620 colon, in the test with MOLT-4 leukemia, in the test on RPMI-8226 leukemia and with SF-268 CNS was over 100 µM each time.
